Reference: patent publication US8697694B2, “Substituted pyridine and pyrimidine derivatives and their use in treating viral infections” (priority 2008, dated 2014)

Each compound was assayed on HCV replicon cells (assay: Cell-based HCV replicon assay (replicon RNA level by real time PCR, Taqman)). Conditions: Hepatitis C virus, 72 h, HCV replicon cells, harvested day 3, replicon RNA by real time PCR; reported as range class; read-out: EC90 (μM) range.
Summary of the method: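 Readout: ΔCT between NS5B replicon RNA and GAPDH by real-time RT-PCR in lysates harvested on day 3, fitted sigmoidally; EC50 at ΔCT=1, EC90 at ΔCT=3.2. Compounds tested at ten 2-fold dilutions from 25 μM to 1 μM start, 10% FBS, 0.5% DMSO.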

`Nc1nc(Cl)c(-c2cc3cc(F)cc(F)c3o2)c(N[C@@H]2C[C@H](CO)[C@@H](O)[C@H]2O)n1` [Example 170] and `Nc1nc(Cl)c(-c2cc3cc(Cl)ccc3o2)c(N[C@@H]2C[C@H](CO)[C@@H](O)[C@H]2O)n1` [Example 165] cannot be ordered by EC90: over 5 µM for the first, over 5 µM for the second.

`OC[C@H]1C[C@@H](Nc2nc(NCCC(F)(F)F)nc(Cl)c2-c2nc3ccccc3s2)[C@H](O)[C@@H]1O` [Example 217] and `OC[C@H]1C[C@@H](Nc2nc(NCCCF)nc(Cl)c2-c2nc3ccccc3s2)[C@H](O)[C@@H]1O` [Example 126] cannot be ordered by EC90: under 0.5 µM for the first, under 0.5 µM for the second.

Compared with `Nc1nc(Cl)c(-c2nc3cc(C(F)(F)F)ccc3s2)c(N[C@@H]2C[C@H](CO)[C@@H](O)[C@H]2O)n1` [Example 112], `OC[C@H]1C[C@@H](Nc2nc(NCC(F)F)nc(Cl)c2-c2nc3ccccc3s2)[C@H](O)[C@@H]1O` [Example 214] is lower in EC90: 0.5 to 5 µM for the first, under 0.5 µM for the second.

Going from `CCCc1cc2cc(-c3c(Cl)nc(N)nc3N[C@@H]3C[C@H](CO)[C@@H](O)[C@H]3O)oc2cn1` [Example 410] to `Cc1cncc2oc(-c3c(Cl)nc(N)nc3N[C@@H]3C[C@H](CO)[C@@H](O)[C@H]3O)cc12` [Example 304], the EC90 rises from under 0.5 µM to over 5 µM.

`Cc1nc(NCC(F)(F)F)nc(N[C@@H]2C[C@H](CO)[C@@H](O)[C@H]2O)c1-c1nc2ccccc2s1` [Example 125] and `Cc1nc(NCCO)nc(N[C@@H]2C[C@H](CO)[C@@H](O)[C@H]2O)c1-c1nc2ccccc2s1` [Example 210] cannot be ordered by EC90: under 0.5 µM for the first, under 0.5 µM for the second.

With `COCCCNc1nc(C)c(-c2nc3ccccc3s2)c(N[C@@H]2C[C@H](CO)[C@@H](O)[C@H]2O)n1` [Example 223] the EC90 was under 0.5 µM.

Same assay, conditions: Hepatitis C virus, 72 h, HCV replicon cells, harvested on day 3, replicon RNA by real time PCR; calculated EC90 reported as range class; read-out: EC90 (μM) range

`Cc1nc(NCc2cccs2)nc(N[C@@H]2C[C@H](C)[C@H]3OC4(CCCCC4)O[C@H]32)c1-c1nc2ccccc2s1` [Example 335] and `Cc1nc(CNc2nc(C)c(-c3nc4ccccc4s3)c(N[C@@H]3C[C@H](CO)[C@H]4OC(C)(C)O[C@H]43)n2)cs1` [Example 494] cannot be ordered by EC90: over 5 µM for the first, over 5 µM for the second.

`Cc1cc2cc(-c3c(Cl)nc(NCC(F)(F)F)nc3N[C@@H]3C[C@H](CO)[C@@H](O)[C@H]3O)oc2c(C)n1` [Example 456] and `CCC(C)(C)Nc1nc(Cl)c(-c2nc3ccccc3s2)c(N[C@@H]2C[C@H](CO)[C@@H](O)[C@H]2O)n1` [Example 506] cannot be ordered by EC90: under 0.5 µM for the first, under 0.5 µM for the second.

First: CSc1nc(C)c(-c2nc3ccccc3s2)c(N[C@@H]2C[C@H](CO)[C@@H](O)[C@H]2O)n1 [Example 326]
Second: Cc1nc(S(C)(=O)=O)nc(N[C@@H]2C[C@H](CO)[C@@H](O)[C@H]2O)c1-c1nc2ccccc2s1 [Example 324]
The EC90 of the first is lower: 0.5 to 5 µM for the first, over 5 µM for the second.

`Cc1nc(NCCNS(C)(=O)=O)nc(N[C@@H]2C[C@H](CO)[C@H]3OC(C)(C)O[C@H]32)c1-c1nc2ccccc2s1` [Example 257] and `Cc1nc(NCc2nccs2)nc(N[C@@H]2C[C@H](CO)[C@@H](O)[C@H]2O)c1-c1nc2ccccc2s1` [Example 474] cannot be ordered by EC90: under 0.5 µM for the first, under 0.5 µM for the second.

Compared with `Cc1nc(NC(CF)CF)nc(N[C@@H]2C[C@H](CO)[C@@H](O)[C@H]2O)c1-c1nc2ccccc2s1` [Example 130], `Cc1ccsc1CNc1nc(C)c(-c2nc3ccccc3s2)c(N[C@@H]2C[C@H](CO)[C@@H](O)[C@H]2O)n1` [Example 479] is lower in EC90: over 5 µM for the first, under 0.5 µM for the second.

Compared with `CCOCCNc1nc(C)c(-c2cc3cc(C(F)(F)F)ncc3o2)c(N[C@@H]2C[C@H](CO)[C@H]3OC(C)(C)O[C@H]32)n1` [Example 134], `Cc1nc(NCC2CCOCC2)nc(N[C@@H]2C[C@H](CO)[C@@H](O)[C@H]2O)c1-c1nc2ccccc2s1` [Example 449] is lower in EC90: over 5 µM for the first, under 0.5 µM for the second.

`CC(=O)N1CCC(Nc2nc(Cl)c(-c3nc4ccccc4s3)c(N[C@@H]3C[C@H](CO)[C@@H](O)[C@H]3O)n2)CC1` [Example 507] and `CCCCCNc1nc(Cl)c(-c2nc3ccccc3s2)c(N[C@@H]2C[C@H](CO)[C@@H](O)[C@H]2O)n1` [Example 433] cannot be ordered by EC90: under 0.5 µM for the first, under 0.5 µM for the second.

`OC[C@H]1C[C@@H](Nc2nc(NCc3ccc(F)cc3)nc(Cl)c2-c2nc3ccccc3s2)[C@H](O)[C@@H]1O` [Example 251] gave an EC90 of under 0.5 µM.

Same assay, conditions: Hepatitis C virus, 72 h, HCV replicon cells, replicon RNA level by real time PCR (Taqman), day 3; calculated EC90; read-out: EC90 (μM) range

First: Cc1ccc([C@H](Nc2nc(C)c(-c3nc4ccccc4s3)c(N[C@@H]3C[C@H](CO)[C@@H](O)[C@H]3O)n2)C(F)(F)F)cc1 [Example 2005]
Second: Cc1nc(NCCc2ccc(C(C)(C)C)cc2)nc(N[C@@H]2C[C@H](CO)[C@@H](O)[C@H]2O)c1-c1nc2cnccc2s1 [Example 2012]
The EC90 of the first is higher: 0.5 to 5 µM for the first, under 0.5 µM for the second.

Same assay, conditions: Hepatitis C virus, 72 h, HCV replicon cells, replicon RNA level by real time PCR (Taqman), harvested on day 3; calculated EC90 reported as range class; read-out: EC90 (μM) range

`COc1cccc(Nc2nc(C)c(-c3nc4ccccc4s3)c(N[C@@H]3C[C@H](CO)[C@H]4OC(C)(C)O[C@H]43)n2)c1OC` [Example 1128] and `Cc1nc(NC(C)c2ccco2)nc(N[C@@H]2C[C@H](CO)[C@H]3OC(C)(C)O[C@H]32)c1-c1nc2ccccc2s1` (stereo partly drawn) [Example 1101] cannot be ordered by EC90: over 5 µM for the first, over 5 µM for the second.

First: Cc1ccc([C@@H](C)Nc2nc(C)c(-c3nc4cnccc4s3)c(N[C@@H]3C[C@H](CO)[C@@H](O)[C@H]3O)n2)cc1 [Example 544]
Second: Cc1ccc(Nc2nc(C)c(-c3nc4ccccc4s3)c(N[C@@H]3C[C@H](CO)[C@@H](O)[C@H]3O)n2)cc1 [Example 1045]
The EC90 of the first is lower: under 0.5 µM for the first, over 5 µM for the second.

`Cc1nc(NCC(F)(F)F)nc(N[C@@H]2C[C@H](CO)[C@@H](O)[C@@H]2O)c1-c1nc2ccccc2s1` [Example 1253] and `CNC[C@H]1C[C@@H](Nc2nc(NCC(F)(F)F)nc(C)c2-c2nc3ccccc3s2)[C@H](O)[C@@H]1O` [Example 1071] fall in the same range of EC90: 0.5 to 5 µM for the first, 0.5 to 5 µM for the second.

Going from `Cc1nc(NCC(C)(C)C)nc(N[C@@H]2CC[C@@H](O)[C@H]2O)c1-c1nc2cnccc2s1` [Example 1213] to `COCCNc1nc(C)c(-c2nc3cnccc3s2)c(N[C@@H]2C[C@H](CO)[C@@H](O)[C@H]2O)n1` [Example 526], the EC90 falls from over 5 µM to under 0.5 µM.

`Cc1nc(NCCC(=O)O)nc(N[C@@H]2C[C@H](CO)[C@@H](O)[C@H]2O)c1-c1nc2ccccc2s1` [Example 1012] and `Cc1nc(OCC(F)(F)F)nc(N[C@@H]2C[C@H](CO)[C@@H](O)[C@H]2O)c1-c1nc2ccccc2s1` [Example 1057] cannot be ordered by EC90: over 5 µM for the first, over 5 µM for the second.

`Cc1nc(N(C)Cc2ccccc2)nc(N[C@@H]2C[C@H](CO)[C@@H](O)[C@H]2O)c1-c1nc2ccccc2s1` [Example 1116] and `Cc1nc(N(C)c2ccccc2)nc(N[C@@H]2C[C@H](CO)[C@@H](O)[C@H]2O)c1-c1nc2cnccc2s1` [Example 1217] cannot be ordered by EC90: over 5 µM for the first, over 5 µM for the second.

First: Cc1nc(Nc2ccccc2OCc2ccccc2)nc(N[C@@H]2C[C@H](CO)[C@H]3OC(C)(C)O[C@H]32)c1-c1nc2ccccc2s1 [Example 1124]
Second: Cc1nc(NC(C)c2ccccn2)nc(N[C@@H]2C[C@H](CO)[C@@H](O)[C@H]2O)c1-c1nc2ccccc2s1 (stereo partly drawn) [Example 1202]
The EC90 of the first is higher: over 5 µM for the first, 0.5 to 5 µM for the second.

Compared with `CNc1ccc2oc(-c3c(C)nc(NCC(F)(F)F)nc3N[C@@H]3C[C@H](CO)[C@@H](O)[C@H]3O)nc2c1` [Example 1064], `OC[C@H]1C[C@@H](Nc2nc(NCC(F)(F)F)ncc2-c2nc3ccccc3s2)[C@H](O)[C@@H]1O` [Example 1058] is lower in EC90: over 5 µM for the first, 0.5 to 5 µM for the second.

Same assay, conditions: Hepatitis C virus, 72 h, HCV replicon cells, replicon RNA level by real time PCR, harvested day 3; read-out: EC90 (μM) range

Compared with `COC[C@@H](Nc1nc(C)c(-c2nc3c(C)nccc3s2)c(N[C@@H]2C[C@H](CO)[C@@H](O)[C@H]2O)n1)c1ccccc1` [Example 1364], `Cc1cccc([C@@H](C)Nc2nc(C)c(-c3nc4c(C)nccc4s3)c(N[C@@H]3C[C@H](CO)[C@@H](O)[C@H]3O)n2)c1` [Example 1525] is lower in EC90: 0.5 to 5 µM for the first, under 0.5 µM for the second.

`CCCc1nccc2sc(-c3c(C)nc(NC4CC4)nc3N[C@@H]3C[C@H](CO)[C@@H](O)[C@H]3O)nc12` [Example 1535] and `CCc1nccc2sc(-c3c(C)nc(N[C@H](C)C4CC4)nc3N[C@@H]3C[C@H](CO)[C@@H](O)[C@H]3O)nc12` [Example 1505] cannot be ordered by EC90: under 0.5 µM for the first, under 0.5 µM for the second.

First: COC(=O)N(C)C[C@H]1C[C@@H](Nc2nc(NCC(F)(F)F)nc(C)c2-c2nc3ccccc3s2)[C@H](O)[C@@H]1O [Example 1390]
Second: Cc1nc(NCC(F)(F)F)nc(N[C@@H]2C[C@H](C(O)c3nccn3C)[C@@H](O)[C@H]2O)c1-c1nc2ccccc2s1 (stereo partly drawn) [Example 1653]
The EC90 of the first is higher: 0.5 to 5 µM for the first, under 0.5 µM for the second.

First: Cc1nc(NCC(F)(F)F)nc(NC2CCN(C(=O)OC(C)(C)C)C2)c1-c1nc2ccccc2s1 (stereo not drawn) [Example 1515]
Second: Cc1nc(NCC(F)(F)F)nc(NC2CCNC2)c1-c1nc2ccccc2s1 (stereo not drawn) [Example 1517]
The EC90 of the first is lower: 0.5 to 5 µM for the first, over 5 µM for the second.

`Cc1nc(NCC(F)(F)F)nc(N[C@@H]2C[C@H](CS(C)(=O)=O)[C@@H](O)[C@H]2O)c1-c1nc2cnccc2s1` [Example 1367] and `Cc1nc(NCC(F)(F)F)nc(N[C@@H]2C[C@H](C(O)c3nccs3)[C@@H](O)[C@H]2O)c1-c1nc2ccccc2s1` (stereo partly drawn) [Example 1639] cannot be ordered by EC90: under 0.5 µM for the first, under 0.5 µM for the second.

`Cc1nc(NCc2cccs2)nc(N[C@@H]2C[C@H](CO)[C@@H](O)[C@H]2O)c1-c1cc2ccccc2s1` [Example 1602] and `COCCNc1nc(C)c(-c2cc3ccccc3s2)c(N[C@@H]2C[C@H](CO)[C@@H](O)[C@H]2O)n1` [Example 1601] cannot be ordered by EC90: over 5 µM for the first, over 5 µM for the second.

First: CCNC(=O)OC[C@H]1C[C@@H](Nc2nc(NCC3CC3)nc(C)c2-c2nc3ccccc3s2)[C@H](O)[C@@H]1O [Example 1629]
Second: Cc1nc(NCC2CC2)nc(N[C@@H]2C[C@H](CO)[C@@H](O)C2(C)O)c1-c1nc2cnccc2s1 (stereo partly drawn) [Example 1383]
The EC90 of the first is higher: 0.5 to 5 µM for the first, under 0.5 µM for the second.

Compared with `Cc1ccc([C@@H](C)Nc2nc(C)c(-c3nc4cnccc4s3)c(N)n2)cc1` [Example 1511], `Cc1nc(N[C@H](c2ccc(C(F)(F)F)cc2)C(F)(F)F)nc(N[C@@H]2C[C@H](CO)[C@@H](O)[C@H]2O)c1-c1nc2c(C)nccc2s1` [Example 1531] is higher in EC90: under 0.5 µM for the first, over 5 µM for the second.
